Measurements reported in US8791108B2, “Inhibitors of human immunodeficiency virus replication” (priority 2011, dated 2014).
Where two headings read alike, the source gives them in different places.

Test system: recombinant NL-Rluc virus
Assay: Inhibition of HIV replication (NL-RLuc luciferase reporter virus, MT-2 cells)
Assay type: cell-based
[1] = Human immunodeficiency virus 1, MT2, 120 h, read-out: Activity
[2] = Human immunodeficiency virus 1, MT2, 120 h, read-out: EC50 μM

SMILES | EC50 [1] [µM] | EC50 [2] [µM] | EC50 (NL-RLuc virus in MT-2 cells, 5 days of incubation, luciferase readout, serum condition not given, read-out: Activity) [µM]
Cc1nc2cc(C(=O)NCc3ccc(F)cc3-c3ncnn3C)nn2c(-c2cc(F)c3c(c2C)CCCO3)c1[C@H](OC(C)(C)C)C(=O)O [Example 18, (2S)-2-(tert-butoxy)-2-(2-((4-fluoro-2-(1-methyl-1H-1,2,4-triazol-5-yl)benzyl)carbamoyl)-7-(8-fluoro-5-methylchroman-6-yl)-5-methylpyrazolo[1,5-a]pyrimidin-6-yl)acetic acid] | 0.1 to 1 | 0.547 | –
Cc1nc2cc(C(=O)NCc3ncc(F)cc3F)nn2c(-c2cc(F)c3c(c2C)CCCO3)c1[C@H](OC(C)(C)C)C(=O)O [Example 36, (2S)-2-(tert-butoxy)-2-(2-(((3,5-difluoropyridin-2-yl)methyl)carbamoyl)-7-(8-fluoro-5-methylchroman-6-yl)-5-methylpyrazolo[1,5-a]pyrimidin-6-yl)acetic acid] | 0.1 to 1 | 0.255 | –
Cc1nc2cc(C(=O)N(C)Cc3ccc(F)cc3)nn2c(-c2cc(F)c3c(c2C)CCCO3)c1[C@H](OC(C)(C)C)C(=O)O [Example 8, (2S)-2-(tert-butoxy)-2-(7-(8-fluoro-5-methylchroman-6-yl)-2-((4-fluorobenzyl)(methyl)carbamoyl)-5-methylpyrazolo[1,5-a]pyrimidin-6-yl)acetic acid] | < 0.1 | – | –
Cc1nc2cc(C(=O)NCc3ccc4c(c3)OCO4)nn2c(-c2cc(F)c3c(c2C)CCCO3)c1[C@H](OC(C)(C)C)C(=O)O [Example 34, (2S)-2-(2-((benzo[d][1,3]dioxol-5-ylmethyl)carbamoyl)-7-(8-fluoro-5-methylchroman-6-yl)-5-methylpyrazolo[1,5-a]pyrimidin-6-yl)-2-(tert-butoxy)acetic acid] | < 0.1 | – | –
Cc1nc2cc(C(=O)NCC3CCN(C(=O)C(C)C)CC3)nn2c(-c2cc(F)c3c(c2C)CCCO3)c1[C@H](OC(C)(C)C)C(=O)O [Example 2, (2S)-2-(tert-Butoxy)-2-(7-(8-fluoro-5-methylchroman-6-yl)-2-(((1-isobutyrylpiperidin-4-yl)methyl)carbamoyl)-5-methylpyrazolo[1,5-a]pyrimidin-6-yl)acetic acid] | > 1 | – | –
Cc1nc2cc(C(=O)NCc3ccc(F)cc3)nn2c(-c2cc(F)c3c(c2C)CCCO3)c1[C@H](OC(C)(C)C)C(=O)O [Example 1, (2S)-2-(tert-butoxy)-2-(7-(8-fluoro-5-methylchroman-6-yl)-2-((4-fluorobenzyl)carbamoyl)-5-methylpyrazolo[1,5-a]pyrimidin-6-yl)acetic acid] | < 0.1 | 0.053 | –
Cc1nc2cc(C(=O)NCc3ccc(OC(F)(F)F)cc3)nn2c(-c2cc(F)c3c(c2C)CCCO3)c1[C@H](OC(C)(C)C)C(=O)O [Example 44, (2S)-2-(tert-butoxy)-2-(7-(8-fluoro-5-methylchroman-6-yl)-5-methyl-2-((4-(trifluoromethoxy)benzyl)carbamoyl)pyrazolo[1,5-a]pyrimidin-6-yl)acetic acid] | < 0.1 | – | –
Cc1nc2cc(C(=O)NCCc3nc4ccccc4s3)nn2c(-c2cc(F)c3c(c2C)CCCO3)c1[C@H](OC(C)(C)C)C(=O)O [Example 119, (2S)-2-(2-((2-(benzo[d]thiazol-2-yl)ethyl)carbamoyl)-7-(8-fluoro-5-methylchroman-6-yl)-5-methylpyrazolo[1,5-a]pyrimidin-6-yl)-2-(tert-butoxy)acetic acid] | < 0.1 | – | –
Cc1nc2cc(C(=O)NCc3nc4ccccc4s3)nn2c(-c2cc(F)c3c(c2C)CCCO3)c1[C@H](OC(C)(C)C)C(=O)O [Example 122, (2S)-2-(2-((benzo[d]thiazol-2-ylmethyl)carbamoyl)-7-(8-fluoro-5-methylchroman-6-yl)-5-methylpyrazolo[1,5-a]pyrimidin-6-yl)-2-(tert-butoxy)acetic acid] | < 0.1 | – | –
Cc1nc2cc(C(=O)NCC3CCOCC3)nn2c(-c2cc(F)c3c(c2C)CCCO3)c1[C@H](OC(C)(C)C)C(=O)O [Example 101, (2S)-2-(tert-butoxy)-2-(7-(8-fluoro-5-methylchroman-6-yl)-5-methyl-2-(((tetrahydro-2H-pyran-4-yl)methyl)carbamoyl)pyrazolo[1,5-a]pyrimidin-6-yl)acetic acid] | 0.1 to 1 | – | –
Cc1nc2cc(C(=O)NS(=O)(=O)Cc3ccccc3)nn2c(-c2cc(F)c3c(c2C)CCCO3)c1[C@H](OC(C)(C)C)C(=O)O [Example 14, (2S)-2-(2-((benzylsulfonyl)carbamoyl)-7-(8-fluoro-5-methylchroman-6-yl)-5-methylpyrazolo[1,5-a]pyrimidin-6-yl)-2-(tert-butoxy)acetic acid] | > 1 | – | –
Cc1nc2cc(C(=O)N3CCN(CCc4ccccc4)CC3)nn2c(-c2cc(F)c3c(c2C)CCCO3)c1[C@H](OC(C)(C)C)C(=O)O [Example 90, (2S)-2-(tert-butoxy)-2-(7-(8-fluoro-5-methylchroman-6-yl)-5-methyl-2-(4-phenethylpiperazine-1-carbonyl)pyrazolo[1,5-a]pyrimidin-6-yl)acetic acid] | 0.1 to 1 | – | –
CCCCOc1cc(F)ccc1CNC(=O)c1cc2nc(C)c([C@H](OC(C)(C)C)C(=O)O)c(-c3ccc4c(c3Cl)NCCO4)n2n1 [Example 143, (2S)-2-(tert-Butoxy)-2-(2-((2-butoxy-4-fluorobenzyl)carbamoyl)-7-(5-chloro-3,4-dihydro-2H-benzo[b][1,4]oxazin-6-yl)-5-methylpyrazolo[1,5-a]pyrimidin-6-yl)acetic acid] | < 0.1 | 0.028 | –
Cc1ccccc1CNC(=O)c1cc2nc(C)c([C@H](OC(C)(C)C)C(=O)O)c(-c3cc(F)c4c(c3C)CCCO4)n2n1 [Example 7, (2S)-2-(tert-butoxy)-2-(7-(8-fluoro-5-methylchroman-6-yl)-5-methyl-2-((2-methylbenzyl)carbamoyl)pyrazolo[1,5-a]pyrimidin-6-yl)acetic acid] | < 0.1 | – | –
Cc1nc2cc(C(=O)N(C)Cc3cccnc3)nn2c(-c2cc(F)c3c(c2C)CCCO3)c1[C@H](OC(C)(C)C)C(=O)O [Example 97, (2S)-2-(tert-butoxy)-2-(7-(8-fluoro-5-methylchroman-6-yl)-5-methyl-2-(methyl(pyridin-3-ylmethyl)carbamoyl)pyrazolo[1,5-a]pyrimidin-6-yl)acetic acid] | > 1 | – | –
Cc1nc2cc(C(=O)N3CCC(Cc4ccccc4)CC3)nn2c(-c2cc(F)c3c(c2C)CCCO3)c1[C@H](OC(C)(C)C)C(=O)O [Example 105, (2S)-2-(2-(4-benzylpiperidine-1-carbonyl)-7-(8-fluoro-5-methylchroman-6-yl)-5-methylpyrazolo[1,5-a]pyrimidin-6-yl)-2-(tert-butoxy)acetic acid] | < 0.1 | – | –
Cc1nc2cc(C(=O)NCCc3ccc(F)cc3)nn2c(-c2cc(F)c3c(c2C)CCCO3)c1[C@H](OC(C)(C)C)C(=O)O [Example 57, (2S)-2-(tert-butoxy)-2-(7-(8-fluoro-5-methylchroman-6-yl)-2-((4-fluorophenethyl)carbamoyl)-5-methylpyrazolo[1,5-a]pyrimidin-6-yl)acetic acid] | < 0.1 | – | –
Cc1nc2cc(C(=O)NCCC3CCCCC3)nn2c(-c2cc(F)c3c(c2C)CCCO3)c1[C@H](OC(C)(C)C)C(=O)O [Example 128, (2S)-2-(tert-butoxy)-2-(2-((2-cyclohexylethyl)carbamoyl)-7-(8-fluoro-5-methylchroman-6-yl)-5-methylpyrazolo[1,5-a]pyrimidin-6-yl)acetic acid] | < 0.1 | – | –
Cc1nc2cc(C(=O)NCC(C)(C)C)nn2c(-c2cc(F)c3c(c2C)CCCO3)c1[C@H](OC(C)(C)C)C(=O)O [Example 127, (2S)-2-(tert-butoxy)-2-(7-(8-fluoro-5-methylchroman-6-yl)-5-methyl-2-(neopentylcarbamoyl)pyrazolo[1,5-a]pyrimidin-6-yl)acetic acid] | 0.1 to 1 | – | –
Cc1nc2cc(C(=O)NCc3ccc(F)cc3O)nn2c(-c2cc(F)c3c(c2C)CCCO3)c1[C@H](OC(C)(C)C)C(=O)O [Example 63, (2S)-2-(tert-butoxy)-2-(2-((4-fluoro-2-hydroxybenzyl)carbamoyl)-7-(8-fluoro-5-methylchroman-6-yl)-5-methylpyrazolo[1,4-a]pyrimidin-6yl)acetic acid] | < 0.1 | – | –
Cc1nc2cc(C(=O)NCc3cccc(-n4cccc4)c3)nn2c(-c2cc(F)c3c(c2C)CCCO3)c1[C@H](OC(C)(C)C)C(=O)O [Example 99, (2S)-2-(2-((3-(1H-pyrrol-1-yl)benzyl)carbamoyl)-7-(8-fluoro-5-methylchroman-6-yl)-5-methylpyrazolo[1,5-a]pyrimidin-6-yl)-2-(tert-butoxy)acetic acid] | < 0.1 | – | –
Cc1cc(CNC(=O)c2cc3nc(C)c([C@H](OC(C)(C)C)C(=O)O)c(-c4cc5c(cc4F)OCCN5)n3n2)ccc1F [Example 145, (2S)-2-(tert-Butoxy)-2-(7-(7-fluoro-3,4-dihydro-2H-benzo[b][1,4]oxazin-6-yl)-2-((4-fluoro-3-methylbenzyl)carbamoyl)-5-methylpyrazolo[1,5-a]pyrimidin-6-yl)acetic acid] | < 0.1 | – | –
Cc1nc2cc(C(=O)NCc3ccco3)nn2c(-c2cc(F)c3c(c2C)CCCO3)c1[C@H](OC(C)(C)C)C(=O)O [Example 38, (2S)-2-(tert-butoxy)-2-(7-(8-fluoro-5-methylchroman-6-yl)-2-((furan-2-ylmethyl)carbamoyl)-5-methylpyrazolo[1,5-a]pyrimidin-6-yl)acetic acid] | 0.1 to 1 | 0.167 | –
Cc1nc2cc(C(=O)NCC34CC5C[C@H](C3)C(O)[C@H](C5)C4)nn2c(-c2cc(F)c3c(c2C)CCCO3)c1[C@H](OC(C)(C)C)C(=O)O (stereo partly drawn) [Example 135, (2S)-2-(tert-butoxy)-2-(7-(8-fluoro-5-methylchroman-6-yl)-2-((((1R,3R,4S,5R,7S)-4-hydroxyadamantan-1-yl)methyl)carbamoyl)-5-methylpyrazolo[1,5-a]pyrimidin-6-yl)acetic acid] | – | – | 0.1 to 1
Cc1cc(CNC(=O)c2cc3nc(C)c([C@H](OC(C)(C)C)C(=O)O)c(/C=C/CC(C)C)n3n2)ccc1F [Example 149, (S,E)-2-(tert-Butoxy)-2-(2-((4-fluoro-3-methylbenzyl)carbamoyl)-5-methyl-7-(4-methylpent-1-en-1-yl)pyrazolo[1,5-a]pyrimidin-6-yl)acetic acid] | > 1 | – | –
